Measured values reported in US20200048308A1, “INFLUENZA VIRUS NE[…]” (priority 2016, published 2020).
Like-named read-outs stand apart in the source and are kept apart here. Where a SMILES comes first, the peptide text is derived from it.

Experiments:
[1] = target: H1/Cal HA (biotinylated full length trimeric HA, A/California/07/2009) (Influenza A virus, UniProt C3W5X2); assay: AlphaLISA competition assay with HB80.4, H1/Cal HA; type: binding, influenza A virus H1N1 A/California/07/2009
Source text: (§1) Binding competition studies were designed to test compounds of the invention for competition with other well characterized HA binding proteins (such as e.g. CR9114, CR6261 and HB80.4) with known epitopes on HA. The epitopes where either located at the stem of the HA (viral membrane proximal part of HA) or, for control purposes, at the head of HA (viral membrane distal part of HA). If competition was observed, it was assumed that both molecules bind to a similar or at least overlapping epitope at the surface of HA. Competition with a HA head- and stem-binder was interpreted as unspecific binding.
(§2) Hereto an AlphaLISA competition assay (Perkin Elmer) was established which relied on biotinylated full length and trimeric HA proteins (Protein Sciences, 10 μL, 0.5 nM final concentration in 50 μL) bound by HA-specific binders. The interaction between HA and the binder was detected after 1 h incubation at room temperature (RT) with two beads, a streptavidin donor bead recognizing HA (10 μL of 10 μg/mL) and an anti Fc bead (10 μg/mL) recognizing the IgGs used. If after an additional hour of incubation at RT the excited donor bead (680 nm) and acceptor bead are in close proximity, an energy transfer (singlet oxygen) can be measured as a luminescence signal of the acceptor bead (Perkin Elmer EnVision plate reader). The signal intensity in this homogeneous assay format is directly proportional to the binding strength (affinity/avidity) between both binding partners.

[2] = target: H1/Nca HA (biotinylated full length trimeric HA, A/New Caledonia/20/1999) (Influenza A virus, UniProt Q6WG00); assay: AlphaLISA competition assay with HB80.4, H1/NCa HA; type: binding, influenza A virus H1N1 A/New Caledonia/20/1999
Source text: as §1, §2

[3] = tested on: influenza virus A/New Caledonia (H1); assay: Virus neutralization assay (VNA) on Calu-3 cells; type: cell-based, influenza A virus H1N1 A/New Caledonia/20/1999
[4] = ALC_H1_NCa_HB80.4 calculated pIC50, AlphaLISA competition with HB80.4 on H1 NCa HA, 0.5 nM HA
[5] = Calu-3 cells, 5 TCID50/50 μL virus, 4 days, NP ELISA readout

Row | Structure (SMILES) | IC50 [1] [nM] | IC50 [2, 4] [nM] | VNA_H1_NCa_Calu3 pIC50 [3, 5] | IC50 [2] [nM] | VNA_H1_NCa_Calu3 pIC50 [3] | IC50 ([2]; IC50 in the alphalisa assay, best compound, strain not stated in text (matches pIC50 7.9 on H1 NCa)) [nM]
1 | CSCC[C@@H]1NC(=O)CNC(=O)CNC(=O)[C@H](C)NC(=O)[C@H](C(C)C)NC(=O)CNC(=O)[C@H](CC(C)C)NC(=O)[C@@H]2CCCN2C(=O)[C@H](CC(=O)O)NC(=O)[C@H](CCC(=O)O)NC(=O)[C@H](Cc2ccc(O)cc2)NC(=O)[C@H](CC(C)C)NC(=O)[C@@H](NC(=O)CCC(=O)O)CSSC[C@@H](C(N)=O)NC(=O)CNC1=O [CP141069, Suc-Cys-Leu-Tyr-Glu-Asp-Pro-Leu-Gly-Val-Ala-Gly-Gly-Met-Gly-Cys-NH2] | 316 | 158 | 6.1 |  |  | 
2 | CSCC[C@@H]1NC(=O)CNC(=O)CNC(=O)[C@H](C)NC(=O)[C@H](C(C)C)NC(=O)CNC(=O)[C@H](CC(C)C)NC(=O)[C@@H]2CCCN2C(=O)[C@H](CC(=O)O)NC(=O)[C@H](CCC(=O)O)NC(=O)[C@H](Cc2ccc(O)cc2)NC(=O)[C@@H](NC(=O)CCC(=O)O)CSSC[C@@H](C(N)=O)NC1=O [CP141070, Suc-Cys-Tyr-Glu-Asp-Pro-Leu-Gly-Val-Ala-Gly-Gly-Met-Cys-NH2] | 6310 |  |  | 3980 | 4.4 | 
3 | CSCC[C@@H]1NC(=O)CNC(=O)CNC(=O)[C@H](C)NC(=O)[C@H](C(C)C)NC(=O)CNC(=O)[C@H](CC(C)C)NC(=O)[C@@H]2CCCN2C(=O)[C@H](CC(=O)O)NC(=O)[C@H](CCCNC(=N)N)NC(=O)[C@H](Cc2ccc(O)cc2)NC(=O)[C@H](CC(C)C)NC(=O)[C@@H](NC(=O)CCC(=O)O)CSSC[C@@H](C(N)=O)NC(=O)CNC1=O [CP141076, Suc-Cys-Leu-Tyr-Arg-Asp-Pro-Leu-Gly-Val-Ala-Gly-Gly-Met-Gly-Cys-NH2] | 100 | 126 | 6.0 |  |  | 
4 | CSCC[C@@H]1NC(=O)CNC(=O)CNC(=O)[C@H](C)NC(=O)[C@H](C(C)C)NC(=O)CNC(=O)[C@H](CC(C)C)NC(=O)[C@@H]2CCCN2C(=O)[C@H](CC(=O)O)NC(=O)[C@H](CCC(=O)O)NC(=O)[C@H](Cc2ccc(O)cc2)NC(=O)[C@H](CC(C)C)NC(=O)[C@H](CO)NC(=O)[C@H](C(C)C)NC(=O)CNC(=O)[C@H]2CCCN2C(=O)[C@H](Cc2ccc(O)cc2)NC(=O)[C@H](C(C)C)NC(=O)CNC1=O [CP141082, Gly-Val-Ser-Leu-Tyr-Glu-Asp-Pro-Leu-Gly-Val-Ala-Gly-Gly-Met-Gly-Val-Tyr-D-Pro] | 20 | 20 | 4.3 |  |  | 
5 | CSCC[C@@H]1NC(=O)CNC(=O)CNC(=O)[C@H](C)NC(=O)[C@H](C(C)C)NC(=O)CNC(=O)[C@H](CC(C)C)NC(=O)[C@@H]2CCCN2C(=O)[C@H](CC(=O)O)NC(=O)[C@H](CCC(=O)O)NC(=O)[C@H](Cc2ccc(O)cc2)NC(=O)[C@H](CC(C)C)NC(=O)[C@H](CO)NC(=O)[C@H]2CCCN2C(=O)CNC(=O)[C@H](C(C)C)NC(=O)CNC1=O [CP141083, D-Pro-Ser-Leu-Tyr-Glu-Asp-Pro-Leu-Gly-Val-Ala-Gly-Gly-Met-Gly-Val-Gly] | 5010 |  |  | 10000 |  | 
6 | CSCC[C@@H]1NC(=O)CNC(=O)CNC(=O)[C@H](C)NC(=O)[C@H](C(C)C)NC(=O)CNC(=O)[C@H](CC(C)C)NC(=O)[C@@H]2CCCN2C(=O)[C@H](CC(=O)O)NC(=O)[C@H](CCC(=O)O)NC(=O)[C@H](Cc2ccc(O)cc2)NC(=O)[C@H](CC(C)C)NC(=O)CNC(=O)[C@H]2CCCN2C(=O)CNC1=O [CP141084, Gly-Leu-Tyr-Glu-Asp-Pro-Leu-Gly-Val-Ala-Gly-Gly-Met-Gly-D-Pro] | 794 | 398 | 5.7 |  |  | 
7 | CSCC[C@@H]1NC(=O)CNC(=O)CNC(=O)[C@H](C)NC(=O)[C@H](C(C)C)NC(=O)CNC(=O)[C@H](CC(C)C)NC(=O)[C@@H]2CCCN2C(=O)[C@H](CC(=O)O)NC(=O)[C@H](CCC(=O)O)NC(=O)[C@H](Cc2ccc(O)cc2)NC(=O)[C@H](CC(C)C)NC(=O)[C@H](CO)NC(=O)[C@H](C(C)C)NC(=O)[C@@H]2CCCN2C(=O)[C@H]2CCCN2C(=O)[C@H](Cc2ccc(O)cc2)NC(=O)[C@H](C(C)C)NC(=O)CNC1=O [CP141085, Pro-Val-Ser-Leu-Tyr-Glu-Asp-Pro-Leu-Gly-Val-Ala-Gly-Gly-Met-Gly-Val-Tyr-D-Pro] | 15.8 | 12.6 | 5.9 |  |  | 13
8 | CSCC[C@@H]1NC(=O)CNC(=O)CNC(=O)[C@H](C)NC(=O)[C@H](C(C)C)NC(=O)CNC(=O)[C@H](CC(C)C)NC(=O)[C@@H]2CCCN2C(=O)[C@H](CC(=O)O)NC(=O)[C@H](CCC(=O)O)NC(=O)[C@H](Cc2ccc(O)cc2)NC(=O)[C@H](CC(C)C)NC(=O)[C@@H]2CCCN2C(=O)[C@H]2CCCN2C(=O)CNC1=O [CP141086, Pro-Leu-Tyr-Glu-Asp-Pro-Leu-Gly-Val-Ala-Gly-Gly-Met-Gly-D-Pro] | 1580 | 200 | 4.6 |  |  | 
9 | CSCC[C@@H]1NC(=O)CNC(=O)CNC(=O)[C@H](C)NC(=O)[C@H](C(C)C)NC(=O)CNC(=O)[C@H](CC(C)C)NC(=O)[C@@H]2CCCN2C(=O)[C@H](CC(=O)O)NC(=O)[C@H](CCC(=O)O)NC(=O)[C@H](Cc2ccc(O)cc2)NC(=O)[C@H](CC(C)C)NC(=O)CNC(=O)CNC1=O [CP141087, Leu-Tyr-Glu-Asp-Pro-Leu-Gly-Val-Ala-Gly-Gly-Met-Gly-Gly] | 501 |  |  | 631 | 4.9 | 
10 | CSCC[C@@H]1NC(=O)CNC(=O)CNC(=O)[C@H](C)NC(=O)[C@H](C(C)C)NC(=O)CNC(=O)[C@H](CC(C)C)NC(=O)[C@@H]2CCCN2C(=O)[C@H](CC(=O)O)NC(=O)[C@H](CCC(=O)O)NC(=O)[C@H](Cc2ccc(O)cc2)NC(=O)[C@H](CC(C)C)NC(=O)CNC1=O [CP141088, Leu-Tyr-Glu-Asp-Pro-Leu-Gly-Val-Ala-Gly-Gly-Met-Gly] | 251 |  |  | 251 | 4.4 | 
11 | CCCC[C@@H]1NC(=O)[C@H](CCC(=O)O)NC(=O)CNC(=O)[C@H](C)NC(=O)[C@H](C(C)C)NC(=O)CNC(=O)[C@H](CC(C)C)NC(=O)[C@@H]2CCCN2C(=O)[C@H](CC(=O)O)NC(=O)[C@H](CCCNC(=N)N)NC(=O)[C@H](Cc2ccc(O)cc2)NC(=O)[C@@H](NC(=O)CCC(=O)O)CSSC[C@@H](C(N)=O)NC1=O [CP141089, Suc-Cys-Tyr-Arg-Asp-Pro-Leu-Gly-Val-Ala-Gly-Glu-Nlu-Cys-NH2] | 25100 |  |  | 50100 |  | 
12 | CC[C@H](NC(=O)[C@@H](NC(=O)CNC(=O)[C@H](CCCc1ccccc1)NC(=O)[C@@H]1CCCN1C(=O)[C@H](CC(=O)O)NC(=O)[C@H](CCCNC(=N)N)NC(=O)[C@H](Cc1ccc(O)cc1)NC(=O)[C@H](CC(C)C)NC(=O)[C@H](CO)NC(=O)[C@@H](NC(=O)CCC(=O)O)C(C)C)C(C)C)C(=O)NCC(=O)N[C@@H](CCC(=O)O)C(=O)N[C@@H](CCSC)C(=O)NCC(=O)N[C@H](C(=O)N[C@@H](Cc1ccc(O)cc1)C(N)=O)C(C)C [CP141090, Suc-Val-Ser-Leu-Tyr-Arg-Asp-Pro-Ph5-Gly-Val-Abu-Gly-Glu-Met-Gly-Val-Tyr-NH2] (HELM PEPTIDE1{[O=C(O)CCC(=O)[*:2]].V.S.L.Y.R.D.P.[O=C([C@H](CCCc1ccccc1)N[*:1])[*:2]].G.V.[Abu].G.E.M.G.V.Y.[am]}$$$$V2.0) | 10000 |  |  | 15800 |  | 
13 | CC[C@@H]1NC(=O)[C@H](C(C)C)NC(=O)CNC(=O)[C@H](CCCc2ccccc2)NC(=O)[C@@H]2CCCN2C(=O)[C@H](CC(=O)O)NC(=O)[C@H](CCC(=O)O)NC(=O)[C@H](Cc2ccc(O)cc2)NC(=O)[C@H](CC(C)C)NC(=O)CNC(=O)[C@H]2CCCN2C(=O)CNC(=O)[C@H](CCSC)NC(=O)CNC(=O)CNC1=O [CP141092, Gly-Leu-Tyr-Glu-Asp-Pro-Ph5-Gly-Val-Abu-Gly-Gly-Met-Gly-D-Pro] (HELM PEPTIDE1{[Abu].G.G.M.G.[dP].G.L.Y.E.D.P.[O=C([C@H](CCCc1ccccc1)N[*:1])[*:2]].G.V}$PEPTIDE1,PEPTIDE1,1:R1-15:R2$$$V2.0) | 398 |  |  | 251 |  | 
14 | CC[C@@H]1NC(=O)[C@H](C(C)C)NC(=O)CNC(=O)[C@H](CCCc2ccccc2)NC(=O)[C@@H]2CCCN2C(=O)[C@H](CC(=O)O)NC(=O)[C@H](CCCNC(=N)N)NC(=O)[C@H](Cc2ccc(O)cc2)NC(=O)[C@@H](NC(=O)CCC(=O)O)CSSC[C@@H](C(N)=O)NC(=O)[C@H](CCSC)NC(=O)[C@H](CCC(=O)O)NC(=O)CNC1=O [CP141093, Suc-Cys-Tyr-Arg-Asp-Pro-Ph5-Gly-Val-Abu-Gly-Glu-Met-Cys-NH2] (HELM PEPTIDE1{[O=C(O)CCC(=O)[*:2]].C.Y.R.D.P.[O=C([C@H](CCCc1ccccc1)N[*:1])[*:2]].G.V.[Abu].G.E.M.C.[am]}$PEPTIDE1,PEPTIDE1,2:R3-14:R3$$$V2.0) | 10000 |  |  | 20000 |  | 
